Assay results: ChEMBL document CHEMBL3853264 (Medchemcomm, 2016)
pIC50: −log10 of the molar value.

Columns and labels:
[1] = target: T1, Solute carrier family 22 member 12 (Homo sapiens, UniProt Q96S37); experiment: Inhibition of human C-terminal eGFP-tagged URAT1 long isoform expressed in CHO cells assessed as decrease in [14C]-uric acid uptake preincubated for 15 mins followed by [14C]-uric acid addition and incubated in dark for 3 hrs by scintillation counting method; format: cell-based
T1 sequence (Q96S37 whole entry): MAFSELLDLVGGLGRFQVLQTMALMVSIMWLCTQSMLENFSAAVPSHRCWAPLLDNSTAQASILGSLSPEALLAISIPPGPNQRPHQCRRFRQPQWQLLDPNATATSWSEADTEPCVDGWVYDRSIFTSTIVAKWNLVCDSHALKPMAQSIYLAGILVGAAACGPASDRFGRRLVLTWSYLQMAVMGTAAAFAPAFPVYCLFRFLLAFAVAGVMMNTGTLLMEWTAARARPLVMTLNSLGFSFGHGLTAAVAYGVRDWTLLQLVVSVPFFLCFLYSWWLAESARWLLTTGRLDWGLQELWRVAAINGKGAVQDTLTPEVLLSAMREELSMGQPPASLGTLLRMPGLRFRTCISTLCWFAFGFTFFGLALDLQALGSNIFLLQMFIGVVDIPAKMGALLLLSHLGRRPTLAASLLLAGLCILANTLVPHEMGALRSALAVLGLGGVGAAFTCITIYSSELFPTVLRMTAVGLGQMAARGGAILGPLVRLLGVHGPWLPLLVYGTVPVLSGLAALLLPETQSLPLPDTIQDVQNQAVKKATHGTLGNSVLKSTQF

[2] = Intrinsic clearance in dog liver microsomes; format: ADME, Canis lupus familiaris; conditions: read-out: CLH
Cytochrome P450 1A2 = Cytochrome P450 1A2 (Homo sapiens, UniProt P05177); experiment: Inhibition of CYP1A2 (unknown origin); format: ADME
Cytochrome P450 2C9 = Cytochrome P450 2C9 (Homo sapiens, UniProt P11712); experiment: Inhibition of CYP2C9 (unknown origin); format: ADME
[3] = target: Solute carrier family 22 member 6 (Homo sapiens, UniProt Q4U2R8); experiment: Inhibition of OAT1 (unknown origin)
[4] = Intrinsic clearance in dog hepatocytes assessed per 10^6 cells; format: ADME, cell-based, Canis lupus familiaris, Hepatocyte; conditions: read-out: CLH
[5] = Plasma clearance in rat at 0.76 mg/kg, iv and 2.3 mg/kg, po; format: ADME, organism-based
[6] = Oral bioavailability in rat at 2.3 mg/kg; format: ADME, organism-based; conditions: in vivo
[7] = Volume of distribution at steady state in rat at 0.5 mg/kg, iv and 1 mg/kg, po; format: ADME, organism-based; conditions: in vivo, read-out: Vdss
[8] = Toxicity in dog assessed as histologic change in testes at 300 mg/kg/day, po measured over 14 days; format: organism-based, Canis lupus familiaris; conditions: in vivo, 336 h
Rattus norvegicus = experiment: Cardiovascular toxicity in rat assessed as decrease in heart rate at 10 mg/kg, po measured over 14 days; format: organism-based; conditions: in vivo, 336 h
[9] = Unbound Cmax in rat at 10 mg/kg, po administered as single dose measured on day 14; format: ADME, organism-based; conditions: in vivo

Sequence of Solute carrier family 22 member 6 (Q4U2R8 whole entry): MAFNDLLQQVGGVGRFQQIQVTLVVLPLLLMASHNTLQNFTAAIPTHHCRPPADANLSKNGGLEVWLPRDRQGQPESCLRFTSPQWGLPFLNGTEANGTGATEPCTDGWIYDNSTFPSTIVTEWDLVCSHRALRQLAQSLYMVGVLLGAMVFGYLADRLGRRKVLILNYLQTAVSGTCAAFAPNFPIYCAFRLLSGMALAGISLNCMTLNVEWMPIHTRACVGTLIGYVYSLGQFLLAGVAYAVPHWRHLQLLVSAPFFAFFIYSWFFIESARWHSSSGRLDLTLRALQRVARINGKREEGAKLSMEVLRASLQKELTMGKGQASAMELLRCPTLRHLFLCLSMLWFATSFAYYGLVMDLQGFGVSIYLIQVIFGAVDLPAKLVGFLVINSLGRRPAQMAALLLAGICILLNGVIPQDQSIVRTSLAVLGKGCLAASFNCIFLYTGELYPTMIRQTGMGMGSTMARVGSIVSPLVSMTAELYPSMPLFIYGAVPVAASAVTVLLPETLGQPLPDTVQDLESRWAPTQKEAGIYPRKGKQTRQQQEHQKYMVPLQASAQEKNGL
Sequence of Cytochrome P450 1A2 (P05177 whole entry): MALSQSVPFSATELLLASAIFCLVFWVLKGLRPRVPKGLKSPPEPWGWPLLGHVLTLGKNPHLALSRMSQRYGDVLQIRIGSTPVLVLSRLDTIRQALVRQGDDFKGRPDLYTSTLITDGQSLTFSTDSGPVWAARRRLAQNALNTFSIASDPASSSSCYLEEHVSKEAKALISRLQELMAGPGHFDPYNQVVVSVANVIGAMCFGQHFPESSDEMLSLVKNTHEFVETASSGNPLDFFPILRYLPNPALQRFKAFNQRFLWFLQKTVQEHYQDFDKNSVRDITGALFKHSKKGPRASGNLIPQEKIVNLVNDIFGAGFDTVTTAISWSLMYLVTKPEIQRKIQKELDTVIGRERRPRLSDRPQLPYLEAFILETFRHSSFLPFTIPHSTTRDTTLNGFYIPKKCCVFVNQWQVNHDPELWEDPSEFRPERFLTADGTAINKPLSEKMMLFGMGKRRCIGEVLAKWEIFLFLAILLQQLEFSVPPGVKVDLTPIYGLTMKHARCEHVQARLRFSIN
Sequence of Cytochrome P450 2C9 (P11712 whole entry): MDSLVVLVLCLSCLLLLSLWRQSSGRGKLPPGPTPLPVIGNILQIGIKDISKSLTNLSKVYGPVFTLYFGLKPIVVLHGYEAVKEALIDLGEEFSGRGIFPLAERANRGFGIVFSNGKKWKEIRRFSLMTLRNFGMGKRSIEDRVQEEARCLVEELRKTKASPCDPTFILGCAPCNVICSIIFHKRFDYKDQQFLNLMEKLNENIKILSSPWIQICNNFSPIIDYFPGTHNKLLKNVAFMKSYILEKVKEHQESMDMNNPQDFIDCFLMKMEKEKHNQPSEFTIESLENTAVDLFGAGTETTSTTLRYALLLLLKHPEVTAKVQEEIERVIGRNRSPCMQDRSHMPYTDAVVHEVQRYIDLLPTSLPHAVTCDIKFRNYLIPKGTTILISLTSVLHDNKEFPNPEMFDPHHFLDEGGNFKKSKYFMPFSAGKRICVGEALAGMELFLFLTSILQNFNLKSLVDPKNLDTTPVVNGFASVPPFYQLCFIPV

N#Cc1ccc(Oc2ccc(S(=O)(=O)Nc3ccc(F)cn3)cc2C#N)cc1Cl
pIC50 [1]: 7.92
microsomal CLint [2]: < 18 µL/min/mg
pIC50 (Cytochrome P450 1A2): < 4.52
pIC50 (Cytochrome P450 2C9): 5.38
pIC50 [3]: 4.85
hepatocyte CLint [4]: < 6 µL/min/1e6 cells
clearance [5]: 0.0288 L/h/kg
bioavailability [6]: 100%
Vd [7]: 0.18 L/kg
Activity [8]: Toxic
Activity (Rattus norvegicus): Toxic
fCmax [9]: 59 nM
